In patent US7867998B2, “Method of making antitussive medicine and relieving cough” (Hong Kong Jockey Club Institute of Chinese Medicine Limited, priority 2005, dated 2011):

Columns and labels:
guinea pigs = test: Antitussive assay: citric acid aerosol-induced cough in conscious guinea pigs, intragastric administration; type: in vivo, guinea pig; conditions: 0.5 M citric acid aerosol for 10 min, versus 1st challenge, HCl salt form in saline
Protocol: Unrestrained conscious guinea pigs were individually placed in a transparent Perspex airtight chamber and exposed to 0.5 M citric acid aerosol produced by an ultrasonic nebulizer (NEU12, Omron, Tokyo, Japan) for 10 min with a flow rate of 0.6 ml/min. During the 10 min observation period, the animals were continuously observed, and the numbers and timing of typical body movement of cough responses including opening the mouth, contraction of thoracic and abdomen muscles and a jerking of the front body were noted. The cough sounds were concurrently picked up via a microphone which connected to a personal computer and analyzed by Cool Edit 2000 software (Syntrillium, Phenix, USA). Thus a cough response can be differentiated from a sneeze and other background noises by observation of body movements, cough sound from loudspeakers and wave patterns recorded in the computer. Animals producing cough more than 18 times but less than 30 in the first challenge were selected for further antitussive tests. Cough episodes during the first challenge were recorded as control data. After 72 hour recovery, the selected sensitive animals were randomly divided into several groups with six animals in each group. The test samples were changed to their salt forms with 4% HCl to dissolve in saline and administrated intragastrically.
In the present experiments, neotuberostemonine produced a reduction in cough episodes by 17 and 40% (P<0.01 versus 1st challenge) at 25 and 50 mg/kg i.g., respectively. […] These two alkaloids are different from neotuberostemonine in molecular skeletons (i.e., base structures). Neotuberostemonine belongs to the stenine group while croomine and stemoninine belong to the tuberostemospironine and stemoamide groups, respectively. […] Since croomine and stemoninine are the major components of Radix Stemonae, they provided scientific evidence for the use of Radix Stemonae for cough treatment in folk medicines and in PRC Pharmacopeia.

cough = conditions: intraperitoneal, at the same dosage; Chung et al., Planta Med. 2003; cited from earlier work

Compound | reduction in cough episodes (guinea pigs; 25 mg/kg i.g.) | reduction in cough episodes (guinea pigs; 50 mg/kg i.g.) | inhibition (of cough) (cough)
CC[C@H]1[C@H]2[C@@H](CCCN3[C@H]2CC[C@H]3[C@@H]2C[C@H](C)C(=O)O2)O[C@]12C=C(C)C(=O)O2 [Stemoninine] | 32% | 66% | 
C[C@@H]1C[C@]2(CCCCN3[C@H]2CC[C@H]3[C@@H]2C[C@H](C)C(=O)O2)OC1=O [croomine, Croomine] | 35% | 57% | 
CC[C@@H]1[C@H]2CCCCN3[C@H]2[C@@H](C[C@H]3[C@@H]2C[C@H](C)C(=O)O2)[C@H]2[C@@H]1OC(=O)[C@H]2C [neotuberostemonine, reference compound] | 17% | 40% | 85%
